The values that follow come from the OligoGym collection.

This data set deals with UBE3A-ATS. Nature of the data set: mouse, dose not given. Particulars: ASO.

HELM strings list units from the 5' end as sugar, base in round brackets, then linkage (d deoxyribose, r ribose, m 2'-O-methyl, p phosphodiester). Strings are as the collection lists them; they lack the last nucleoside at the 3' end of the tested compound. [moe] = 2'-O-(2-methoxyethyl) (MOE); [sp] = phosphorothioate linkage; [m5C] = 5-methylcytosine

The substance “RNA1{[moe]([m5C])[sp].[moe]([m5C])p.[moe]([m5C])p.[moe](A)p.[moe](T)p.d(T)[sp].d(A)[sp].d(G)[sp].d(A)[sp].d([m5C])[sp].d([m5C])[sp].d([m5C])[sp].d(A)[sp].d(T)[sp].d(G)[sp].[moe](G)p.[moe]([m5C])p.[moe](T)[sp].[moe]([m5C])}$$$$ (last 3' nucleoside missing)” showed a 3 h FOB score of 7 score 0-7. As to “RNA1{[moe]([m5C])[sp].[moe]([m5C])p.[moe]([m5C])p.[moe](A)p.[moe](T)p.d(T)[sp].d([m5C])[sp].d(A)[sp].d(G)[sp].d([m5C])[sp].d(A)[sp].d([m5C])[sp].d(T)[sp].d(T)[sp].d(A)[sp].[moe](G)p.[moe](G)p.[moe](T)[sp].[moe](A)}$$$$ (last 3' nucleoside missing)”, the 3 h FOB score was found to be 4.8 score 0-7.
